For test [1], the target named is T1, recombinant PCSK9 (Homo sapiens, UniProt Q8NBP7). Kind of test: LDLR Flow (FACS) Assay (% inhibition of recombinant PCSK9). The test is classed as cell-based. The note with it: 5.0 ug/mL recombinant PCSK9, HuH7 cells (FIG. 2), read-out: LDLR Flow Assay: % Inhibition of 5.0 ug/mL recombinant PCSK9 @ X compound dose; for inhibition at 1.25 µM: Huh-7, compound dose 1.25 uM; for inhibition at 10 µM: Huh-7, compound dose 10 uM; for inhibition at 0.313 µM: Huh-7, compound dose 0.313 uM; for inhibition at 20 µM: Huh-7, compound dose 20 uM. How it is done:
The cells were incubated in 24-well plates for a total of 6 h in the absence or presence of recombinant PCSK9 protein (final concentration of 5.0 ug/ml), or in the presence of PCSK9 protein mixed with indicated concentration of experimental compound (Cmpd #). After 6 hours, the cells were released from the plate, stained with anti-LDLR antibody, then rinsed, counterstained with DAPI, and then measured by fluorescence activated cell sorting (FACS). The percent recombinant PCSK9 inhibition was calculated as [‘Compound Dose LDLR Fluorescence’−‘5.0 ug/ml PCSK9-treated LDLR Fluorescence’]/[‘No PCSK9 Basal LDLR Fluorescence’−‘5.0 ug/ml PCSK9-treated LDLR Fluorescence’]×100%.
LDLR levels can be measured using flow cytometry or fluorescence activated cell sorting (FACS) using protocols adapted from Benjannet et al., “Effects of the prosegment and pH on the activity of PCSK9: evidence for additional processing events” J Biol Chem. 285(52): 40965-40978 (2010) and “Composition and Methods of Use of Small Molecules as Binding Ligands for the Modulation of Proprotein Convertase Subtilisin/Kexin Type 9 (PCSK9) Protein Activity” (WO2016029037), which are incorporated by reference in their entirety.
Cells, such as HepG2, HuH7, FL83B, or a cell line transfected with a short-hairpin PCSK9 knockdown sequence such as HepG2/shPCSK9, HuH7/shPCSK9, or FL83B/shPCSK9 are plated and cultured at 37° C. for 12-24 h. Culture media is removed and replaced with fresh culture media or culture media plus a predetermined amount of recombinant PCSK9, for example a 10 nM final concentration of PCSK9. Cell culture media can be composed of DMEM (Invitrogen) with 10% fetal bovine serum (Life Technologies) supplemented with penicillin-streptomycin (Life Technologies). Cells are dosed with small molecule test compounds at doses ranging from 0 nM to 100 uM
Following an incubation period of specified length, such as 6 hours, the media is removed and the cells are rinsed three times with a rinse solution (i.e., Dulbecco's phosphate buffered saline (D-PBS, Life Technologies) supplemented with 0.5% bovine serum albumin (BSA, Sigma) and 1 g/L glucose (Sigma)). The fluid is then removed, and cells are released from the plate using TrypLE Express (Life Technologies) per manufacturer's recommend procedures, such as incubation for 5-10 minutes at 37° C. The TyrpLE-Cell suspension is then transferred to 15 mL conical tubes, volume is increased to 2 mL with D-PBS supplemented with 0.5% BSA and […] glucose, and the tubes are centrifuged at 250× gravity for 10 minutes. Following centrifugation, the supernatant is aspirated and the cell pellet is resuspended in 100 uL D-PBS containing 0.5% BSA and […] glucose, and cells are labeled with anti-LDLR antibody per the manufacturer's recommended procedure. The cells are then pelleted by centrifugation, resuspended in 300 uL PBS and counterstained with 4′,6-Diamidino-2-phenylindole (DAPI, Cayman Chemical) as a cell viability marker, other cell viability markers such as 7-aminoactinomycin D (7AAD, Life Technologies) have also been described in the art.
Cells are analyzed for both cell viability marker (dead cells) and LDLR in live cells using a flow cytometer per the manufacturer's operating manual. Cells incubated with small molecule compounds that are inhibitors of PCSK9 will be expected to show increased amounts of LDLR, relative to control (no compound) specimens, and cells incubated with small molecule compounds that are activators of PCSK9 will be expected to show decreased amounts of LDLR relative to control (no compound) specimens.

Test [2] concerns the target T1, recombinant PCSK9. Kind of test: DiI-LDL Uptake Assay (% inhibition of recombinant PCSK9). The note with it: 2.5 ug/mL recombinant PCSK9, HepG2 cells (FIG. 1), read-out: Uptake Assay: % Inhibition of 2.5 ug/mL recombinant PCSK9 @ X compound dose; for inhibition at 20 µM: compound dose 20 uM; for inhibition at 10 µM: compound dose 10 uM; for inhibition at 5 µM: compound dose 5 uM; for inhibition at 1.25 µM: compound dose 1.25 uM; for inhibition at 2.5 µM: compound dose 2.5 uM. Format: cell-based. How it is done: The cells were incubated in a 96-well plate for a total of 16 h in the absence or presence of recombinant PCSK9 (final concentration 2.5 ug/ml) protein alone or recombinant PCSK9 protein pre-mixed with indicated concentration of experimental compounds (Cmpd #). After 16 h, DiI-LDL (final concentration 5 ug/ml) was added to the incubation mixtures. After 4 h, cells are stained with Hoechst 33342 for 30 minutes, then rinsed with phosphate buffered saline, and then a final volume of 100 ul phosphate buffered saline was added to each well. The fluorescence was measured (DiI: excitation at 550 nm and emission at 590 nm; Hoechst: excitation at 355 nm, emission at 460 nm). The percent recombinant PCSK9 inhibition was calculated as [‘Compound Dose DiI Fluorescence’−‘2.5 ug/ml PCSK9-treated DiI Fluorescence’]/[‘No PCSK9 DiI Fluorescence’−‘2.5 ug/ml PCSK9-treated DiI Fluorescence’]×100%.
Cellular DiI-LDL uptake can be measured using protocols adapted from Benjannet et al., “Effects of the prosegment and pH on the activity of PCSK9: evidence for additional processing events” J Biol Chem. 285(52): 40965-40978 (2010) and “Composition and Methods of Use of Small Molecules as Binding Ligands for the Modulation of Proprotein Convertase Subtilisin/Kexin Type 9 (PCSK9) Protein Activity” (WO2016029037), which are incorporated by reference in their entirety.
Cells, such as HepG2, HuH7, FL83B, or a cell line transfected with a short-hairpin PCSK9 knockdown sequence such as HepG2/shPCSK9, HuH7/shPCSK9, or FL83B/shPCSK9 are plated and cultured at 37° C. for 12-24 h. Culture media is removed and replaced with fresh lipoprotein-depleted culture media supplemented with 5 ug/mL of DiI-LDL (Kalen Biomedical) or lipoprotein-depleted culture media supplemented with 5 ug/mL of DiI-LDL plus a predetermined concentration of recombinant PCSK9, for example a 10 nM final concentration of PCSK9. Lipoprotein-depleted culture media can be composed of DMEM (Invitrogen) with 10% lipoprotein-depleted fetal bovine serum (Kalen Biomedical) and supplemented with penicillin-streptomycin (Life Technologies). Cells are dosed with small molecule test compounds at doses ranging from 0 nM to 100 uM.
Following an incubation period of specified length, such as 6 hours, Hoechst 33342 (AnaSpec) stain is added to the cell media per manufacturer's instructions and incubated for a specified length (e.g., 30 minutes). The lipoprotein-depleted media is removed and cells rinsed three times with phosphate buffered saline. A final volume of phosphate buffered saline is added back to the wells. The DiI fluorescence is measured with a plate reader using an exciting wavelength of 550 nm and the resulting emission at 590 nm is measured. The Hoechst stain fluorescence is measured with a plate reader using an exciting wavelength of 355 nm and the resulting emission at 460 nm is measured.
Cells are analyzed by for both Hoechst stain (DNA content) and DiI-LDL fluorescence. Cells incubated with small molecule compounds that are inhibitors of PCSK9 will be expected to show increased amounts of DiI-LDL fluorescence, relative to control (no compound) specimens, and cells incubated with small molecule compounds that are activators of PCSK9 will be expected to show decreased amounts of DiI-LDL fluorescence relative to control (no compound) specimens.

T1 sequence (Q8NBP7 153-692): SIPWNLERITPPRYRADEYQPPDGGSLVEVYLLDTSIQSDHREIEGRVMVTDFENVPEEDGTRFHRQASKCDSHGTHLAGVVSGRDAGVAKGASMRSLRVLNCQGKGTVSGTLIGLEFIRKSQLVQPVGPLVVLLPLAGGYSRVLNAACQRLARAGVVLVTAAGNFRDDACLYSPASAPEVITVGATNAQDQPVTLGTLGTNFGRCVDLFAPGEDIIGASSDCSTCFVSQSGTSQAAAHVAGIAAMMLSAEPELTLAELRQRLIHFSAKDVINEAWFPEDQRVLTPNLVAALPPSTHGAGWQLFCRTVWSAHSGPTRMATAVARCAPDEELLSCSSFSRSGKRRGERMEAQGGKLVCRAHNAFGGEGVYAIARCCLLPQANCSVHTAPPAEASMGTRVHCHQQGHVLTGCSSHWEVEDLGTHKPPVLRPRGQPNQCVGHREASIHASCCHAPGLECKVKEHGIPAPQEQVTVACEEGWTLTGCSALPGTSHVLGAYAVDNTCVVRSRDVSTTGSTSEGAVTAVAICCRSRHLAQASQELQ

In the case of `O=S(=O)(c1ccc(N2CCNCC2)cc1)N1CCCC1` [Compound 5, 1-(4-(pyrrolidin-1-ylsulfonyl)phenyl)piperazine], on recombinant PCSK9 [1], the inhibition at 1.25 µM is about 10% and the inhibition at 10 µM was about 20%.
On to `O=S(=O)(Nc1ccccc1)c1ccc(C2CCNCC2)cc1` [Compound 14, N-phenyl-4-(piperidin-4-yl)benzenesulfonamide], for which the inhibition at 20 µM on recombinant PCSK9 [2] was over 100%.
With `c1ccc(COc2ccc(N3CCNCC3)cc2)cc1` [Compound 1, 1-(4-(benzyloxy)phenyl)piperazine], the inhibition at 10 µM at recombinant PCSK9 [2] was over 100%. For the same molecule, on recombinant PCSK9 [1], the inhibition at 1.25 µM was about 16% and the inhibition at 10 µM is about 34%.
Take `O=C(Nc1ccccc1)c1ccc(N2CCNCC2)cc1` [Compound 11, N-phenyl-4-(piperazin-1-yl)benzamide]: the inhibition at 20 µM on recombinant PCSK9 [2] was about 49%.
On to `Oc1cc(Oc2ccc(N3CCNCC3)cc2)ncn1` [Compound 4, 6-(4-(piperazin-1-yl)phenoxy)pyrimidin-4-ol], for which, on recombinant PCSK9 [1], the inhibition at 0.313 µM was about 19% and the inhibition at 1.25 µM is about 30%.
Regarding `Fc1ccc(Cc2ccc(N3CCNCC3)cc2)cc1` [Compound 6, 1-(4-(4-fluorobenzyl)phenyl)piperazine], at recombinant PCSK9 [2], the inhibition at 5 µM is over 100%. In addition, on recombinant PCSK9 [1], the inhibition at 1.25 µM is about 15% and the inhibition at 10 µM is about 40%.
Consider `c1cc(C2CCNCC2)ccc1OC1CCOCC1` [Compound 9, 4-(4-((tetrahydro-2H-pyran-4-yl)oxy)phenyl)piperidine], for which, at recombinant PCSK9 [1], the inhibition at 20 µM was about 23%.
As to `c1ccc(Oc2ccc(N3CCNCC3)cc2)cc1` [Compound 3], the inhibition at 10 µM at recombinant PCSK9 [2] was over 100%. On recombinant PCSK9 [1], the inhibition at 1.25 µM was about 20% and the inhibition at 10 µM was about 30%.
Consider `O=S(=O)(c1ccccc1)c1ccc(N2CCNCC2)c(F)c1` [Compound 2, 1-(2-fluoro-4-(phenylsulfonyl)phenyl)piperazine], for which, on recombinant PCSK9 [2], the inhibition at 20 µM is over 100%. Also, the inhibition at 1.25 µM on recombinant PCSK9 [1] is about 45%. Also, the inhibition at 5 µM on recombinant PCSK9 [1] (Huh-7, compound dose 5 uM) is about 66%.
Consider `c1cc(N2CCNCC2)ccc1OC1CCCCC1` [Compound 13, 1-(4-(cyclohexyloxy)phenyl)piperazine], for which, on recombinant PCSK9 [2], the inhibition at 20 µM was over 100%. In addition, at recombinant PCSK9 [1] (Huh-7, compound dose 0.625 uM), the inhibition at 0.625 µM is about 20%. On recombinant PCSK9 [1], the inhibition at 10 µM was about 40%.
In the case of `O=S(=O)(Nc1ccc2c(c1)CCCC2)c1ccc(N2CCNCC2)cc1` [Compound 12, 4-(piperazin-1-yl)-N-(5,6,7,8-tetrahydronaphthalen-2-yl)benzenesulfonamide], at recombinant PCSK9 [2], the inhibition at 1.25 µM was about 66% and the inhibition at 2.5 µM is over 100%. On recombinant PCSK9 [1], the inhibition at 1.25 µM was about 10%, the inhibition at 10 µM was about 25% and the inhibition at 20 µM was about 45%.
For the molecule `c1cc(C2CCNCC2)ccc1OC1CCCCC1` [Compound 8, 4-(4-(cyclohexyloxy)phenyl)piperidine], on recombinant PCSK9 [2], the inhibition at 5 µM was over 100%. Moreover, at recombinant PCSK9 [1], the inhibition at 0.313 µM was about 15%, the inhibition at 1.25 µM is about 25% and the inhibition at 10 µM is about 35%.
Turning to `O=C1CNCCN1c1ccc(Oc2ccccc2)cc1` [Compound 7, 1-(4-phenoxyphenyl)piperazin-2-one], on recombinant PCSK9 [1], the inhibition at 1.25 µM is about 18%.
Regarding `O=S(=O)(Nc1ccc2c(c1)CCCC2)c1ccc(C2CCNCC2)cc1` [Compound 15, 4-(piperidin-4-yl)-N-(5,6,7,8-tetrahydronaphthalen-2-yl)benzenesulfonamide], at recombinant PCSK9 [2], the inhibition at 1.25 µM is over 50% and the inhibition at 2.5 µM was over 100%.
As for `O=S(=O)(Nc1ccccc1)c1ccc(N2CCNCC2)cc1` [Compound 10, N-phenyl-4-(piperazin-1-yl)benzenesulfonamide], the inhibition at 20 µM at recombinant PCSK9 [2] was over 100%. Moreover, on recombinant PCSK9 [1], the inhibition at 1.25 µM was over 10%, the inhibition at 10 µM was over 25% and the inhibition at 20 µM was over 40%.

These data come from patent publication US11925637B2, “Phenylpiperazine proprotein convertase subtilisin/kexin type 9 (PCSK9) modulators and their use” (SRX Cardio, LLC, priority 2015, dated 2024).
